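Five concentrations, 48 hours, 96-well plates. TGI denotes the concentration required for complete inhibition of growth.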
Legend:
Assay in all cases: NCI tumour cell line growth inhibition, 48 h
A498 renal = test system: A498 renal
A549 NSCLC = test system: A549 NSCLC
ACHN renal = test system: ACHN renal
CCRF-CEM leukemia = test system: CCRF-CEM leukemia
COLO 205 colon = test system: COLO 205 colon
DMS 114 small cell lung = test system: DMS 114 small cell lung
DMS 273 small cell lung = test system: DMS 273 small cell lung
EKVX NSCLC = test system: EKVX NSCLC
HCT-116 colon = test system: HCT-116 colon
HCT-15 colon = test system: HCT-15 colon
HL-60(TB) leukemia = test system: HL-60(TB) leukemia
HOP-18 NSCLC = test system: HOP-18 NSCLC
HT29 colon = test system: HT29 colon
IGROV1 ovarian = test system: IGROV1 ovarian
K-562 leukemia = test system: K-562 leukemia
KM20L2 colon = test system: KM20L2 colon
LOX IMVI melanoma = test system: LOX IMVI melanoma
LXFL 529 NSCLC = test system: LXFL 529 NSCLC
M14 melanoma = test system: M14 melanoma
M19-MEL melanoma = test system: M19-MEL melanoma
MOLT-4 leukemia = test system: MOLT-4 leukemia
NCI-H23 lung = test system: NCI-H23 lung
NCI-H460 lung = test system: NCI-H460 lung
OVCAR-3 ovarian = test system: OVCAR-3 ovarian
OVCAR-4 ovarian = test system: OVCAR-4 ovarian
OVCAR-8 ovarian = test system: OVCAR-8 ovarian
RPMI-8226 leukemia = test system: RPMI-8226 leukemia
RXF 393 renal = test system: RXF 393 renal
SF-295 CNS = test system: SF-295 CNS
SF-539 CNS = test system: SF-539 CNS
SK-MEL-28 melanoma = test system: SK-MEL-28 melanoma
SK-MEL-5 melanoma = test system: SK-MEL-5 melanoma
SK-OV-3 ovarian = test system: SK-OV-3 ovarian
SN12C renal = test system: SN12C renal
SNB-19 CNS = test system: SNB-19 CNS
SNB-75 CNS = test system: SNB-75 CNS
SNB-78 CNS = test system: SNB-78 CNS
SW-620 colon = test system: SW-620 colon
TK-10 renal = test system: TK-10 renal
U251 CNS = test system: U251 CNS
UACC-257 melanoma = test system: UACC-257 melanoma
UACC-62 melanoma = test system: UACC-62 melanoma
XF 498 CNS = test system: XF 498 CNS
786-0 renal = test system: 786-0 renal
CAKI-1 renal = test system: CAKI-1 renal
DLD-1 colon = test system: DLD-1 colon
HCC-2998 colon = test system: HCC-2998 colon
HOP-62 NSCLC = test system: HOP-62 NSCLC
HOP-92 NSCLC = test system: HOP-92 NSCLC
KM12 colon = test system: KM12 colon
MALME-3M melanoma = test system: MALME-3M melanoma
NCI-H226 lung = test system: NCI-H226 lung
NCI-H522 lung = test system: NCI-H522 lung
OVCAR-5 ovarian = test system: OVCAR-5 ovarian
SF-268 CNS = test system: SF-268 CNS
SK-MEL-2 melanoma = test system: SK-MEL-2 melanoma
UO-31 renal = test system: UO-31 renal

Measured: TGI

CCOC(=O)COc1ccc(OC)c2c1C(=O)CCC2
> 100 µM: A498 renal | A549 NSCLC | ACHN renal | CCRF-CEM leukemia | COLO 205 colon | DMS 114 small cell lung | DMS 273 small cell lung | EKVX NSCLC | HCT-116 colon | HCT-15 colon | HL-60(TB) leukemia | HOP-18 NSCLC | HT29 colon | IGROV1 ovarian | K-562 leukemia | KM20L2 colon | LOX IMVI melanoma | LXFL 529 NSCLC | M14 melanoma | M19-MEL melanoma | MOLT-4 leukemia | NCI-H23 lung | NCI-H460 lung | OVCAR-3 ovarian | OVCAR-4 ovarian | OVCAR-8 ovarian | RPMI-8226 leukemia | RXF 393 renal | SF-295 CNS | SF-539 CNS | SK-MEL-28 melanoma | SK-MEL-5 melanoma | SK-OV-3 ovarian | SN12C renal | SNB-19 CNS | SNB-75 CNS | SNB-78 CNS | SW-620 colon | TK-10 renal | U251 CNS | UACC-257 melanoma | UACC-62 melanoma | XF 498 CNS

COc1ccc(C2Oc3ccc(O)cc3[C@@H]2C)cc1OC (stereo partly drawn)
> 100 µM: 786-0 renal | A549 NSCLC | ACHN renal | CAKI-1 renal | CCRF-CEM leukemia | COLO 205 colon | DLD-1 colon | DMS 114 small cell lung | DMS 273 small cell lung | EKVX NSCLC | HCC-2998 colon | HCT-116 colon | HCT-15 colon | HL-60(TB) leukemia | HOP-18 NSCLC | HOP-62 NSCLC | HOP-92 NSCLC | HT29 colon | IGROV1 ovarian | K-562 leukemia | KM12 colon | KM20L2 colon | LOX IMVI melanoma | LXFL 529 NSCLC | M14 melanoma | M19-MEL melanoma | MALME-3M melanoma | MOLT-4 leukemia | NCI-H226 lung | NCI-H23 lung | NCI-H460 lung | NCI-H522 lung | OVCAR-3 ovarian | OVCAR-4 ovarian | OVCAR-5 ovarian | OVCAR-8 ovarian | RPMI-8226 leukemia | RXF 393 renal | SF-268 CNS | SF-295 CNS | SF-539 CNS | SK-MEL-2 melanoma | SK-MEL-28 melanoma | SK-MEL-5 melanoma | SK-OV-3 ovarian | SNB-19 CNS | SNB-75 CNS | SNB-78 CNS | SW-620 colon | TK-10 renal | U251 CNS | UACC-257 melanoma | UACC-62 melanoma | UO-31 renal | XF 498 CNS
